# From article PMC2824700, “Genetic analysis of the Staphylococcus epidermidis Macromolecular Synthesis Operon: Serp1129 is an ATP binding protein and sigA transcription is regulated by both σ^A- and σ^B-dependent promoters” (BMC Microbiology, 2010)
# Target: T1, Serp1129 (Staphylococcus epidermidis, UniProt Q5HNY5)
# T1 construct: full ORF in pET30a+ (NcoI/BamHI), His-tagged, E. coli BL21(DE3), HisTrap purified
# T1 sequence (Q5HNY5 1-272): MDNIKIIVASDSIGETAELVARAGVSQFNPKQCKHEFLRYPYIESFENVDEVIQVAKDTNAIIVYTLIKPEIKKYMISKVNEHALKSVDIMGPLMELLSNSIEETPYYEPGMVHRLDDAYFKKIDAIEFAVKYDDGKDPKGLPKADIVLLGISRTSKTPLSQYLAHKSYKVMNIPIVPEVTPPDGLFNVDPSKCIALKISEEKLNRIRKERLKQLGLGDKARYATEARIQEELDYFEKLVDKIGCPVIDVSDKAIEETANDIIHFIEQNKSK
# Test: competition against biotinylated azidoanilide GTP photoaffinity label, streptavidin blot
# Format: binding
# Conditions: 5-30 uM unlabeled GTP versus 1 uM labelled analogue; 25 °C, 30 s, then UV 254 nm
compound,measurement,value
Nc1nc2c(ncn2[C@@H]2O[C@H](COP(=O)(O)OP(=O)(O)OP(=O)(O)O)[C@@H](O)[C@H]2O)c(=O)[nH]1 [GTP],"competition against biotinylated azidoanilide GTP photoaffinity label, streptavi",A similar pattern was observed when GTP binding reactions were performed
